Assay results taken from patent US4304781A, “Treatment of ulcers and hypertension” (John Wyeth & Brother Limited, priority 1978, dated 1981).

Columns and labels:
Format in all cases: in vivo
stress-induced erosion = test: Stress-induced erosion test (Senay & Levine), anti-ulcer activity
Procedure: (§1) Anti-ulcer activity was determined by the stress-induced erosion test of Senay & Levine, Proc. Soc. Exp. Biol. Med., 124, 1221-1223 (1967) and anti-secretory activity by the test of H. Shay, D. Sun and H. Greenstin, Gastroenterology, 1954, 26, 903-913 as exemplified by Beattie et al J. Med. Chem., 20, 714 (1977). […] However, some compounds show activity in tests for anti-hypertensive activity.

hypersecretion = test: Anti-secretory activity test (Shay et al); parameters: key to Anti-secretory, % change in Vol.: NS: Not Significant; details: for change in vivo at 10 mg/kg / change in vivo at 30 mg/kg: read-out: Anti-secretory, % change in Vol.; for change in vivo at 30 mg/kg / Anti-secretory, % change in Vol.: 30 mg/kg
Procedure: as §1

[1] = tested on: male spontaneously hypertensive rats; test: Antihypertensive activity, Procedure A: systolic pressure of spontaneously hypertensive rats
Procedure: Systolic pressure of male spontaneously hypertensive rats is measured by an indirect technique using the Decker Caudal Plethysmograph or other appropriate sensor. Groups usually consist of 4 rats. Drugs are usually administered orally. Pressures are usually read prior to drug administration and at 1.5, 4 and 24 hours thereafter. This schedule may be altered depending upon the behaviour of the drug.

[2] = tested on: Female rats rendered hypertensive; test: Antihypertensive activity, Procedure B: deoxycorticosterone acetate hypertensive rats (unilateral nephrectomy); details: 50 mg/kg orally
Procedure: Female rats are rendered hypertensive by unilateral nephrectomy and the s.c. implantation of a pellet containing 30 mg of deoxycorticosterone acetate. The drinking water is replaced by normal saline ad lib for the first four weeks following preparation. Blood pressures stabilise at a hypertensive level after 6 weeks. Systolic pressure is measured indirectly before dosing with a test compound using an E and M pneumatic pulse transducer and a Devices MX2 recorder. Groups of 4 rats are dosed orally with suspensions or solutions of the test compound in 0.5% hydroxypropyl-methyl-cellulose 0.9% saline vehicle. Blood pressures are recorded again at 2, 6 and 24 hours and the results, expressed as a percentage of the pre-dose values compared with those of a similar group of rats receiving vehicle alone.

Structure (SMILES)	inhibition in vivo at 30 mg/kg (stress-induced erosion)	inhibition in vivo at 100 mg/kg (stress-induced erosion)	change in vivo at 10 mg/kg (hypersecretion)	change in vivo at 30 mg/kg (hypersecretion)	Antihypertensive activity (Procedure A) ([1]; 75 mg/kg orally)	Antihypertensive activity (Procedure B) [2]	inhibition in vivo at 10 mg/kg (stress-induced erosion; 10 mg/kg)	Anti-secretory, % change in Vol. (hypersecretion)	Antihypertensive activity (Procedure A) ([1]; 50 mg/kg orally)
C[n+]1ccccc1SCCc1ccccc1 [Example 2, 1-Methyl-2-(2-phenylethylthio) pyridinium bromide]	83%	67%	-20%	-56%	showed activity				
C[n+]1ccccc1SCc1ccc(Cl)cc1 [Example 3, 2-(4-Chlorobenzylthio)-1-methylpyridinium chloride]		83%		-77%	inactive				
C[n+]1ccccc1SCc1ccc(Cl)c(Cl)c1 [Example 4, 2-(3,4-Dichlorobenzylthio)-1-methylpyridinium chloride]		67%		-45%	showed activity				
C[n+]1ccccc1SCc1c(Cl)cccc1Cl [Example 5, 2-(2,6-Dichlorobenzylthio)-1-methylpyridinium chloride]		70%	-35%	-65%	showed activity				
C[n+]1ccccc1SCc1cccc(Cl)c1 [Example 11, 1-Methyl-2-(3-chlorobenzylthio(pyridinium chloride]		62%	-42%	-70%		inactive			
C[n+]1ccccc1SCC1CCCCC1 [Example 12, 2-(Cyclohexylmethylthio)-1-methylpyridinium bromide]	67%	87%				inactive	64%	NS	
C[n+]1ccccc1SCC(=O)c1ccccc1 [Example 15, 1-Methyl-2-phenacylthiopyridinium bromide]		100%			showed activity			NS	
C[n+]1ccccc1SCc1cccc(Br)c1 [Example 17, 2-(3-Bromobenzylthio)-1-methylpyridinium bromide]		64%		-52%					inactive
CC(C)c1ccc(CSc2cccc[n+]2C)cc1 [Example 18, 2-((-4-Isopropylbenzyl)thio)-1-methylpyridinium chloride]	60%	71%		-39%					inactive
